The assay deals with S. aureus strains, alpha hemolysin production inhibition. The assay is described as follows: inhibition of S. aureus alpha hemolysin production, S. aureus quorum sensing inhibitors, NM300, NM400, MRSA3757 (AID 1507). Particulars: for inhibition: stronger effect = higher value.
[1] abbreviates: hemolysin inhibition, MRSA3757, at 12 µM.
The mark [2] stands for this setting: hemolysin inhibition, strain NM400, at 12 µM.

The source made the active and inactive calls. The rule behind the calls is not given here.

The term inhibition denotes the drop in the measured response relative to a control, in per cent. Take `CC1CCCN(C(C(=O)Nc2ccc3c(c2)OCCO3)c2ccccc2)C1` (stereo not given): where the note is “at 12 µM”, the outcome is “inactive; agr3 active”. Also, the inhibition under setting [1] turned out to be 20% and the inhibition under setting [2] was 57%.

On to `Cc1c(Cl)cccc1Nc1ccccc1C(=O)O`, for which the inhibition reads like this: (at 30 µM) 99%; (hemolysin inhibition, strain NM300, at 30 µM) 100%.

Turning to `CCc1oc2ccccc2c1C(=O)c1cc(Br)c(O)c(Br)c1`, the inhibition (at 6 µM) is 100% and the inhibition (hemolysin inhibition, strain NM300, at 6 µM) came to 100%.

As for `CC1CCCN(C(C(=O)Nc2ccc3c(c2)OCO3)c2ccccc2)C1` (stereo not given), the outcome (at 12 µM) is “inactive; agr3 active”. Further, the inhibition by setting is: under setting [1], 15%; under setting [2], 55%.

The values are drawn from PubChem BioAssay AID1507 (NMMLSC, 2009).
